Results: patent publication US8912120B2, “Herbicidal compositions comprising 4-amino-3-chloro-5-fluoro-6-(4-chloro-2-fluoro-3-methoxyphenyl) pyridine-2-carboxylic acid or a derivative thereof and synthetic auxin herbicides” (Dow AgroSciences, LLC., priority 2012, dated 2014)
Where two headings read alike, the source gives them in different places.

Experiments:
CYPIR = test: Example I: postemergence foliar-applied herbicidal mixtures, direct seeded rice, CYPIR; format: in vivo, Cyperus iria (rice flatsedge); conditions: 5.3 gae/ha
LEFCH [1] = test: Example I: postemergence foliar-applied herbicidal mixtures, direct seeded rice, LEFCH; format: in vivo, Leptochloa chinensis (Chinese sprangletop)
Protocol: (§4) The soil matrix was contained in plastic pots with a volume of 1 quart and a surface area of 83.6 square centimeters (cm^2). […] The plants were grown for 8-22 days in a greenhouse with an approximate 14 h photoperiod which was maintained at about 29° C. during the day and 26° C. during the night. Nutrients (Peters Excel® 15-5-15 5-Ca 2-Mg and iron chelate) were applied in the irrigation solution as needed and water was added on a regular basis. Supplemental lighting was provided with overhead metal halide 1000-Watt lamps as necessary. The plants were employed for testing when they reached the first through fourth true leaf stage.
(§5) Treatments consisted of the acid or esters of 4-amino-3-chloro-5-fluoro-6-(4-chloro-2-fluoro-3-methoxy-phenyl)pyridine-2-carboxylic acid (Compound A), each formulated as an SC (suspension concentrate), and various herbicidal components alone and in combination. Forms of compound A were applied on an acid equivalent basis.
(§6) For treatments comprised of formulated compounds, measured amounts of compounds were placed individually in 25 mL glass vials and diluted in a volume of 1.25% (v/v) Agri-Dex® crop oil concentrated to obtain 12× stock solutions. […] Application solutions were prepared by adding an appropriate amount of each stock solution (e.g., 1 mL) and diluted to the appropriate final concentrations with the addition of 10 mL of an aqueous mixture of 1.25% (v/v) crop oil concentrate so that the final spray solutions contained 1.25+/−0.05% (v/v) crop oil concentrate.
(§7) All stock solutions and applications solutions were visually inspected for compound compatibility prior to application. Spray solutions were applied to the plant material with an overhead Mandel track sprayer equipped with a 8002E nozzles calibrated to deliver 187 L/ha over an application area of 0.503 m^2 at a spray height of 18 to 20 inches (46 to 50 cm) above average plant canopy height. Control plants were sprayed in the same manner with the solvent blank.
(§8) The treated plants and control plants were placed in a greenhouse as described above and watered by sub-irrigation to prevent wash-off of the test compounds. After approximately 3 weeks, the condition of the test plants as compared with that of the untreated plants was determined visually and scored on a scale of 0 to 100 percent where 0 corresponds to no injury or growth inhibition and 100 corresponds to complete kill.
(§9) Colby's equation was used to determine the herbicidal effects expected from the mixtures (Colby, S. R. 1967. Calculation of the synergistic and antagonistic response of herbicide combinations. Weeds 15:20-22).
(§10) The following equation was used to calculate the expected activity of mixtures containing two active ingredients, A and B: Expected=A+B−(A×B/100)
(§11) A=observed efficacy of active ingredient A at the same concentration as used in the mixture.
(§12) B=observed efficacy of active ingredient B at the same concentration as used in the mixture.

IPOHE = test: Example I: postemergence foliar-applied herbicidal mixtures, direct seeded rice, IPOHE; format: in vivo, Ipomoea hederacea (ivyleaf morningglory)
Protocol: as §4, §5, §6, §7, §8, §9, §10, §11, §12

CYPRO = test: Example II: in-water applied herbicidal mixtures, weed control in transplanted paddy rice (greenhouse), CYPRO; format: in vivo, Cyperus rotundus (purple nutsedge); conditions: for Visual Weed Control (%) - 20 DAA CYPRO Obs / Visual Weed Control (%) - 21 DAA CYPRO Obs / Visual Weed Control (%) - 22 DAA CYPRO Obs: in-water application
Protocol: (§1) The prepared mud was dispensed in 365 mL aliquots into 16-ounce (oz.) non-perforated plastic pots with a surface area of 86.59 square centimeters (cm^2) leaving a headspace of 3 centimeters (cm) in each pot Mud was allowed to dry overnight prior to planting or transplanting. Rice seeds were planted in Sun Gro MetroMix® 306 planting mixture, which typically has a pH of 6.0 to 6.8 and an organic matter content of about 30 percent, in plastic plug trays. Seedlings at the second or third leaf stage of growth were transplanted into 840 mL of mud contained in 32-oz. non-perforated plastic pots with a surface area of 86.59 cm^2 4 days prior to herbicide application. […] Nutrients were added as Osmocote® (19:6:12, N:P:K^+ minor nutrients) at 2 g per 16-oz. pot and 4 g per 32-oz. pot.
(§2) Applications were made by injecting with a pipetter appropriate amounts of the application solutions, individually and sequentially, into the aqueous layer of the paddy. Control plants were treated in the same manner with the solvent blank. Applications were made so that all treated plant material received the same concentrations of acetone and crop oil concentrate.

ECHCG [2] = test: Example II: in-water applied herbicidal mixtures, transplanted paddy rice, ECHCG; format: in vivo, Echinochloa crus-galli (barnyardgrass); conditions: for Visual Weed Control (%) - 21 DAA ECHCG Obs / Visual Weed Control (%) - 22 DAA ECHCG Obs: in-water application
Outline: (§3)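 Herbicides were injected by pipette, one after another, into the standing water of mud-filled pots. Rice had been moved in at the second or third leaf stage four days earlier. Every treatment carried identical acetone and crop oil concentrate levels, and untreated controls received only the solvent blank.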

ECHOR = test: Example II: in-water applied herbicidal mixtures, transplanted paddy rice, ECHOR; format: in vivo, Echinochloa oryzoides (early watergrass)
Outline: as §3

LEFCH [3] = test: Example II: in-water applied herbicidal mixtures, transplanted paddy rice, LEFCH; format: in vivo, Leptochloa chinensis (Chinese sprangletop)
Outline: as §3

SCPMA = test: Example II: in-water applied herbicidal mixtures, transplanted paddy rice, SCPMA; format: in vivo; conditions: for Visual Weed Control (%) - 20 DAA SCPMA Obs: in-water application
Protocol: as §1, §2

DIGSA = test: Example I: postemergence foliar-applied herbicidal mixtures, direct seeded rice, DIGSA; conditions: 21.2 gae/ha
Protocol: as §4, §5, §6, §7, §8, §9, §10, §11, §12

ECHCG [4] = test: Example I: postemergence foliar-applied herbicidal mixtures, direct seeded rice, ECHCG
ECHCO = test: Example I: postemergence foliar-applied herbicidal mixtures, direct seeded rice, ECHCO
[5] = 8.75 gae/ha, in-water application
[6] = 17.5 gae/ha, in-water application
[7] = 35 gae/ha, in-water application
[8] = 42.4 gae/ha, in-water application

COc1c(Cl)ccc(-c2nc(C(=O)O)c(Cl)c(N)c2F)c1F [Compound A Acid, 4-amino-3-chloro-6-(4-chloro-2-fluoro-3-methoxyphenyl)-5-fluoropyridine-2-carboxylic acid]
Visual Weed Control (%) - 20 DAA CYPIR Obs (CYPIR): 65%
Visual Weed Control (%) - 20 DAA LEFCH Obs (LEFCH [1]; 4.38 gae/ha): 0%
Visual Weed Control (%) - 20 DAA LEFCH Obs (LEFCH [1]; 5.3 gae/ha): 10%
Visual Weed Control (%) - 20 DAA LEFCH Obs (LEFCH [1]; 8.75 gae/ha): 0%
Visual Weed Control (%) - 20 DAA LEFCH Obs (LEFCH [1]; 17.5 gae/ha): 10%
Visual Weed Control (%) - 19 DAA LEFCH Obs (LEFCH [1]; 19.4 gae/ha): 5%
Visual Weed Control (%) - 20 DAA IPOHE Obs (IPOHE; 4.38 gae/ha): 10%
Visual Weed Control (%) - 20 DAA IPOHE Obs (IPOHE; 8.75 gae/ha): 15%
Visual Weed Control (%) - 20 DAA IPOHE Obs (IPOHE; 17.5 gae/ha): 30%
Visual Weed Control (%) - 20 DAA CYPRO Obs (CYPRO; 8.75 gae/ha): 0%
Visual Weed Control (%) - 21 DAA CYPRO Obs (CYPRO; 8.75 gae/ha): 0%
Visual Weed Control (%) - 22 DAA CYPRO Obs (CYPRO; 8.75 gae/ha): 0%
Visual Weed Control (%) - 20 DAA CYPRO Obs (CYPRO; 17.5 gae/ha): 70%
Visual Weed Control (%) - 21 DAA CYPRO Obs (CYPRO; 17.5 gae/ha): 30%
Visual Weed Control (%) - 22 DAA CYPRO Obs (CYPRO; 17.5 gae/ha): 20%
Visual Weed Control (%) Obs (CYPRO; 20 DAA, 10.6 gae/ha): 10%
Visual Weed Control (%) Obs (CYPRO; 20 DAA, 21.2 gae/ha): 20%
Visual Weed Control (%) Obs (CYPRO; 22 DAA, 8.75 gae/ha): 0%
Visual Weed Control (%) Obs (CYPRO; 22 DAA, 10.6 gae/ha): 0%
Visual Weed Control (%) Obs (CYPRO; 22 DAA, 17.5 gae/ha): 20%
Visual Weed Control (%) Obs (CYPRO; 22 DAA, 21.2 gae/ha): 40%
Visual Weed Control (%) Obs (CYPRO; 22 DAA, 35 gae/ha): 50%
Visual Weed Control (%) - 21 DAA CYPRO Obs (CYPRO; 35 gae/ha): 85%
Visual Weed Control (%) - 22 DAA CYPRO Obs (CYPRO; 35 gae/ha): 50%
Visual Weed Control (%) - 21 DAA ECHCG Obs (ECHCG [2]; 8.75 gae/ha): 0%
Visual Weed Control (%) - 22 DAA ECHCG Obs (ECHCG [2]; 8.75 gae/ha): 0%
Visual Weed Control (%) - 21 DAA ECHCG Obs (ECHCG [2]; 17.5 gae/ha): 0%
Visual Weed Control (%) - 22 DAA ECHCG Obs (ECHCG [2]; 17.5 gae/ha): 20%
Visual Weed Control (%) Obs (ECHCG [2]; 20 DAA, 10.6 gae/ha): 20%
Visual Weed Control (%) Obs (ECHCG [2]; 20 DAA, 21.2 gae/ha): 20%
Visual Weed Control (%) Obs (ECHCG [2]; 20 DAA, 42.4 gae/ha): 50%
Visual Weed Control (%) Obs (ECHCG [2]; 21 DAA, 10.6 gae/ha): 0%
Visual Weed Control (%) Obs (ECHCG [2]; 22 DAA, 8.75 gae/ha): 0%
Visual Weed Control (%) Obs (ECHCG [2]; 22 DAA, 17.5 gae/ha): 20%
Visual Weed Control (%) Obs (ECHCG [2]; 22 DAA, 21.2 gae/ha): 25%
Visual Weed Control (%) Obs (ECHCG [2]; 22 DAA, 35 gae/ha): 25%
Visual Weed Control (%) Obs (ECHCG [2]; 22 DAA, 42.4 gae/ha): 30%
Visual Weed Control (%) Obs (ECHCG [2]; 25 DAA, 8.75 gae/ha): 0%
Visual Weed Control (%) Obs (ECHCG [2]; 25 DAA, 17.5 gae/ha): 0%
Visual Weed Control (%) Obs (ECHCG [2]; 25 DAA, 35 gae/ha): 70%
Visual Weed Control (%) - 21 DAA ECHCG Obs (ECHCG [2]; 35 gae/ha): 20%
Visual Weed Control (%) - 22 DAA ECHCG Obs (ECHCG [2]; 35 gae/ha): 25%
Visual Weed Control (%) - 20 DAA ECHOR Obs (ECHOR; [5]): 10%
Visual Weed Control (%) - 21 DAA ECHOR Obs (ECHOR; [5]): 10%
Visual Weed Control (%) - 22 DAA ECHOR Obs (ECHOR; [5]): 0%
Visual Weed Control (%) - 25 DAA ECHOR Obs (ECHOR; [5]): 0%
Visual Weed Control (%) - 20 DAA ECHOR Obs (ECHOR; [6]): 25%
Visual Weed Control (%) - 21 DAA ECHOR Obs (ECHOR; [6]): 15%
Visual Weed Control (%) - 22 DAA ECHOR Obs (ECHOR; [6]): 0%
Visual Weed Control (%) - 25 DAA ECHOR Obs (ECHOR; [6]): 0%
Visual Weed Control (%) - 20 DAA ECHOR Obs (ECHOR; [7]): 25%
Visual Weed Control (%) - 21 DAA ECHOR Obs (ECHOR; [7]): 20%
Visual Weed Control (%) - 22 DAA ECHOR Obs (ECHOR; [7]): 20%
Visual Weed Control (%) - 25 DAA ECHOR Obs (ECHOR; [7]): 40%
Visual Weed Control (%) - 19 DAA ECHOR Obs (ECHOR; [8]): 15%
pest or weed control at 42.4 g/ha (ECHOR; Echinochloa oryzoides, 456 h, 19 DAA, 42.4 gae/ha, read-out: Visual Weed Control (%) Obs): 15%
pest or weed control at 21.2 g/ha (ECHOR; Echinochloa oryzoides, 480 h, 20 DAA, 21.2 gae/ha, read-out: Visual Weed Control (%) Obs): 30%
pest or weed control at 84.8 g/ha (ECHOR; Echinochloa oryzoides, 480 h, 20 DAA, 84.8 gae/ha, read-out: Visual Weed Control (%) Obs): 33%
pest or weed control at 8.75 g/ha (ECHOR; Echinochloa oryzoides, 504 h, 21 DAA, 8.75 gae/ha, read-out: Visual Weed Control (%) Obs): 0%
pest or weed control at 17.5 g/ha (ECHOR; Echinochloa oryzoides, 504 h, 21 DAA, 17.5 gae/ha, read-out: Visual Weed Control (%) Obs): 0%
pest or weed control at 35 g/ha (ECHOR; Echinochloa oryzoides, 504 h, 21 DAA, 35 gae/ha, read-out: Visual Weed Control (%) Obs): 20%
pest or weed control at 42.4 g/ha (ECHOR; Echinochloa oryzoides, 504 h, 21 DAA, 42.4 gae/ha, read-out: Visual Weed Control (%) Obs): 15%
pest or weed control at 8.75 g/ha (ECHOR; Echinochloa oryzoides, 528 h, 22 DAA, 8.75 gae/ha, read-out: Visual Weed Control (%) Obs): 0%
pest or weed control at 17.5 g/ha (ECHOR; Echinochloa oryzoides, 528 h, 22 DAA, 17.5 gae/ha, read-out: Visual Weed Control (%) Obs): 0%
pest or weed control at 35 g/ha (ECHOR; Echinochloa oryzoides, 528 h, 22 DAA, 35 gae/ha, read-out: Visual Weed Control (%) Obs): 20%
pest or weed control at 8.75 g/ha (ECHOR; Echinochloa oryzoides, 600 h, 25 DAA, 8.75 gae/ha, read-out: Visual Weed Control (%) Obs): 0%
pest or weed control at 17.5 g/ha (ECHOR; Echinochloa oryzoides, 600 h, 25 DAA, 17.5 gae/ha, read-out: Visual Weed Control (%) Obs): 0%
pest or weed control at 35 g/ha (ECHOR; Echinochloa oryzoides, 600 h, 25 DAA, 35 gae/ha, read-out: Visual Weed Control (%) Obs): 40%
Visual Weed Control (%) - 21 DAA LEFCH Obs (LEFCH [3]; [5]): 0%
Visual Weed Control (%) - 25 DAA LEFCH Obs (LEFCH [3]; [5]): 50%
Visual Weed Control (%) - 21 DAA LEFCH Obs (LEFCH [3]; [6]): 0%
Visual Weed Control (%) - 25 DAA LEFCH Obs (LEFCH [3]; [6]): 50%
Visual Weed Control (%) Obs (LEFCH [3]; 22 DAA, 10.6 gae/ha): 20%
Visual Weed Control (%) Obs (LEFCH [3]; 22 DAA, 21.2 gae/ha): 40%
Visual Weed Control (%) Obs (LEFCH [3]; 22 DAA, 42.4 gae/ha): 60%
Visual Weed Control (%) Obs (LEFCH [3]; 25 DAA, 8.75 gae/ha): 50%
Visual Weed Control (%) Obs (LEFCH [3]; 25 DAA, 17.5 gae/ha): 50%
Visual Weed Control (%) Obs (LEFCH [3]; 25 DAA, 35 gae/ha): 85%
Visual Weed Control (%) - 21 DAA LEFCH Obs (LEFCH [3]; [7]): 30%
Visual Weed Control (%) - 25 DAA LEFCH Obs (LEFCH [3]; [7]): 85%
Visual Weed Control (%) - 19 DAA LEFCH Obs (LEFCH [3]; [8]): 10%
Visual Weed Control (%) - 20 DAA SCPMA Obs (SCPMA; 8.75 gae/ha): 0%
Visual Weed Control (%) - 20 DAA SCPMA Obs (SCPMA; 17.5 gae/ha): 0%
Visual Weed Control (%) Obs (SCPMA; 20 DAA, 42.4 gae/ha): 0%
Visual Weed Control (%) Obs (SCPMA; 20 DAA, 84.8 gae/ha): 0%
Visual Weed Control (%) Obs (SCPMA; 21 DAA, 42.4 gae/ha): 0%
Visual Weed Control (%) Obs (SCPMA; 22 DAA, 8.75 gae/ha): 0%
Visual Weed Control (%) Obs (SCPMA; 22 DAA, 16 gae/ha): 0%
Visual Weed Control (%) Obs (SCPMA; 22 DAA, 17.5 gae/ha): 0%
Visual Weed Control (%) Obs (SCPMA; 22 DAA, 32 gae/ha): 0%
Visual Weed Control (%) Obs (SCPMA; 22 DAA, 35 gae/ha): 0%
Visual Weed Control (%) Obs (SCPMA; 22 DAA, 64 gae/ha): 30%
Visual Weed Control (%) - 20 DAA SCPMA Obs (SCPMA; 35 gae/ha): 0%
Visual Weed Control (%) - 21 DAA DIGSA Obs (DIGSA): 10%
Visual Weed Control (%) - 21 DAA ECHCG Obs (ECHCG [4]; 4.38 gae/ha): 15%
Visual Weed Control (%) - 21 DAA ECHCG Obs (ECHCG [4]; 8.75 gae/ha): 50%
Visual Weed Control (%) - 19 DAA ECHCG Obs (ECHCG [4]; 19.4 gae/ha): 80%
Visual Weed Control (%) - 21 DAA ECHCO Obs (ECHCO; 4.38 gae/ha): 70%
Visual Weed Control (%) - 21 DAA ECHCO Obs (ECHCO; 8.75 gae/ha): 75%
